Patent US20230364052A1, “COMPOSITION AND METHOD FOR TREATING AUTISM” (ZELIRA THERAPEUTICS OPERATIONS PTY LTD, priority 2017, published 2023)

The molecules below were run on patients with ASD diagnosis according to DSM-5 (assay: Retrospective review of ASD patients treated with Cannabis extracts; clinical response by CGI-I Scale). Details: 66.6% of the ASD patients, treated before Cannabis therapy.
Type: in vivo
Experimental: A retrospective review of patients seen between June 2016 and March 2017 with ASD diagnosis according to DSM-5 (persistent deficits in social communication and interaction; restricted, repetitive patterns of behaviour, interests, or activities; symptoms present in the early developmental period; cause clinically significant impairment in social, occupational, or other areas of current functioning; not explained by intellectual disability nor global developmental delay) who were treated with Cannabis extracts for at least a 12-week period was completed. Demographic/clinical data, neuroimaging/EEG studies, vision, audition, genetic, and metabolic tests, parental/school/neuropsychological reports were reviewed.
The patients were administered with the cannabinoids sublingually (sublingual drops or “rice grain” method—see Example 1) twice daily (BID) for the duration of their treatment. The Cannabis extracts were obtained from the Moby Dick, Sharck, Durga mata or Nebula strains of Cannabis. For 10 out of the 21 patients included in the study, the total daily dosage of CBD and THC (measured by HPLC) and CBD:THC ratio were calculated and discussed further below.
The initial severity of symptoms presenting in the patients was assessed according to the criteria provided in the DSM-5, and are shown in FIG. 3.
The selected patients consisted of twenty (20) children and 1 adult (Mean age: 9 years, 10 month (range: 26 mo-22 yo), 15 males).
Mean follow-up after starting Cannabis therapy was 7.6 mo (range: 3-12 months). According to Cannabis strain, 71.5% of patients received balanced CBD:THC extracts; 19.0% high-CBD (e.g. Table 3; Formulations 1-3), and 9.5% high-THC extracts (e.g. Table 3; Formulation 6). The administered daily dose of CBD and THC was measured in 10 patients; 9 of them received […] and one high-THC extracts (Tables 2 and 3).
In the case of `Cc1nc2n(c(=O)c1CCN1CCC(c3noc4cc(F)ccc34)CC1)CCCC2` [risperidone], the “response to previous treatment” value is reported as “without good response and/or with undesirable adverse events”.
With `O=C1CCc2ccc(OCCCCN3CCN(c4cccc(Cl)c4Cl)CC3)cc2N1` [aripiprazole] the “response to previous treatment” value was “without good response and/or with undesirable adverse events”.
For `COC(=O)C(c1ccccc1)C1CCCCN1` (stereo not shown) [methylphenidate], the “response to previous treatment” value was “without good response and/or with undesirable adverse events”.
With `OCCOCCN1CCN(C2=Nc3ccccc3Sc3ccccc32)CC1` [quetiapine] the “response to previous treatment” value was “without good response and/or with undesirable adverse events”.
